Assay results from ChEMBL document CHEMBL5029196, “Novel Isoindolone Compounds as HPK1 Inhibitors for Treating Cancer” (ACS Med Chem Lett, 2022).

Target: Mitogen-activated protein kinase kinase kinase kinase 1 (Homo sapiens, UniProt Q92918)
Experiment: Inhibition of human full length recombinant HPK1 using 5FAM-AKRRRLSSLRACOOH as substrate preincubated for 20 mins and measured for 60 mins by microfluidic mobility shift assay

Sequence of Mitogen-activated protein kinase kinase kinase kinase 1 (Q92918 whole entry): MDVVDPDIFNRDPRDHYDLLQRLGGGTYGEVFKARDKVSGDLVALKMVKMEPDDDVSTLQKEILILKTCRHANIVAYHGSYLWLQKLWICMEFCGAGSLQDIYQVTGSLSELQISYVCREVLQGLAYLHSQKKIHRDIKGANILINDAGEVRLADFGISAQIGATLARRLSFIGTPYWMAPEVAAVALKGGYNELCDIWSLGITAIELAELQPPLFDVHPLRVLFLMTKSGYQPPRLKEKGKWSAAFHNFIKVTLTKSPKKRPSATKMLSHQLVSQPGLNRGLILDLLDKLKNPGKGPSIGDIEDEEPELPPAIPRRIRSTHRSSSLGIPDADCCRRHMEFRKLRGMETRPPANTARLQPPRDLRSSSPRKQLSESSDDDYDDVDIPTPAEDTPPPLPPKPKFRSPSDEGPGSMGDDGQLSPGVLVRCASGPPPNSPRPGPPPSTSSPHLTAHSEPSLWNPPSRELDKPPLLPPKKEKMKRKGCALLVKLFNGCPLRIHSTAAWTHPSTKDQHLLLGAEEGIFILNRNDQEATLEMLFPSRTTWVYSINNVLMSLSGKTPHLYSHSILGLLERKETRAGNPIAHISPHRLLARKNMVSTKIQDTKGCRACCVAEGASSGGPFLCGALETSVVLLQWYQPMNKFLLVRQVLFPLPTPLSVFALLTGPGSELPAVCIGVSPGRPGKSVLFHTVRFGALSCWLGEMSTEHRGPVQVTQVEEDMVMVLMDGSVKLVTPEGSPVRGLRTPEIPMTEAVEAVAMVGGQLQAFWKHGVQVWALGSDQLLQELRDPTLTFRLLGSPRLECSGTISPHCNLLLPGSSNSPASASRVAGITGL

Row | Ki [pM] | SMILES
1 | 400 | COc1cc2c(c(S(N)(=O)=O)c1)CN(c1cccc(-c3nncn3C(C)C)n1)C2=O
2 | 300 | CC[C@H](C)n1cnnc1-c1cccc(N2Cc3c(CNC)cc(N4CCCC4)cc3C2=O)n1
3 | 400 | CC[C@H](C)n1cnnc1-c1cccc(N2Cc3c(CNC)cc(N(C)C)cc3C2=O)n1
4 | 400 | CC[C@@H](CC(F)(F)F)n1cnnc1-c1cccc(N2Cc3c(CNC)cc(OC)cc3C2=O)n1
5 | 300 | COc1cc(CN)c2c(c1)C(=O)N(c1cccc(-c3nncn3[C@@H](C)CC(F)(F)F)n1)C2
6 | 200 | CNCc1cc(OC)cc2c1CN(c1cccc(-c3nncn3[C@@H](C)C3CC3)n1)C2=O
